Measured values published in patent US7410553B2, “Building construction felt paper with biocide/anti-microbial treatment” (Atlas Roofing Corporation, priority 2005, dated 2008).
Like-named read-outs stand apart in the source and are kept apart here. Marks after values point to notes of the source that are not given here.

Tests used:
Aspergillus niger = test: Agar-Plate Test Method (modified ASTM G-21), radial mycelial growth on biocide-containing agar; type: cell-based; settings: for IC50 (ppm) Aspergillus niger: linear regression of radial growth
Description: (§1) Five biocides were chosen for a comparative evaluation for inhibition activity against three common mold fungi. The evaluation was performed at the Forest Research Labs of Mississippi State University in Starkville, Miss. (“MSU”) using a substantially modified version of ASTM G-21, termed the “The Agar-Plate Test Method”. This method provides a rapid screening test for the evaluation of biocides against a wide variety of microorganisms.
(§2) Five (5) biocide compositions (“biocides”) were evaluated using the Agar-Plate Test Method: (1) Microbe Shield, (2) Zinc Pyrithione (ZPT), (3) ortho-Phenyl Phenol, (4) Borogard ZB, and (5) a mixture evaluated of 50% Zinc Pyrithione with 50% Borogard ZB. These biocide compositions were added to autoclaved fungal media at different concentrations. […] Plugs of specific fungi were inoculated onto agar plates containing the different biocides/concentrations.
(§3) For terminology, “hypha” (singular) and “hyphae” (plural) is/are a loose network of delicate filaments in a fungus. […] (plus the adjective form “mycelial”) is/are the main part of fungus, consisting of the feeding and reproducing hyphae, that forms the body of a fungus. Radial growth of a mycelia is measured and plotted against concentration. A linear regression is run to estimate the biocide concentration that inhibits radial growth by 50%. This Inhibitory Concentration is called the IC50.
(§4) The five (5) different biocides that were involved in the comparative evaluations were tested at four (4) concentrations per biocide composition, plus a control (no biocide). The biocides were tested against three common mold fungi (Aspergillus niger, Cladosporium cladosporioides, and Penicillium funiculosum) with five (5) replicates for every treatment combination. The biocides that were tested and their concentrations were (1) Microbe Shield at 0, 3, 15, 75 and 375 ppm (“Parts Per Million”) ai (“Active Ingredient”); (2) Zinc Pyrithione at 0, 3, 15, 75 and 375 ppm ai; (3) ortho-Phenyl Phenol (“OPP”) at 0, 3, 15, 75 and 375 ppm ai; (4) Borogard ZB at 0, 10, 50, 250, and 1250 ppm ai; and (5) the 50:50 mixture of Zinc Pyrithione and Borogard ZB at 0, 1.5/5.0, 7.5/25, 37.5/125, and 187.5/625 ppm ai.
(§5) Stock concentrations of each biocide were dissolved or suspended in water or acetone (only OPP was dissolved in acetone) to a concentration that allowed 1 ml of stock to be added to 250 ml of media in order to provide the highest required biocide concentration. Stocks were diluted in a 5 fold series to match the concentrations required. For each biocide concentration, 250 ml of Sabouraund Dextrose Agar in water was autoclaved and then cooled to 50° C. Then 1 ml of the appropriate biocide concentration was added to each flask. Control flasks received 1 ml of water or acetone (for OPP). Media was mixed, dispensed into Petri dishes and allowed to cool. Each biocide test used 90 agar plates including controls.
(§6) A […] plug of agar was removed from every plate at the time of each study. A plug from an agar plate containing one of the fungi was inserted into the hole. The plug of fungi was taken from the leading edge of a fungal colony. Several plates of fungi were required for each study. The studies were grouped by fungi. The Cladosporium cladosporioides study began first; the Aspergillus niger study began next; and the Penicillium funiculosum study began last. Mycelial growth was measured for every plate in each study. Fast growing species were measured daily and slower growing species were measured every 2-3 days. All studies were carried for at least two weeks or until growth leveled out. Digital photographs were taken at different times during each fungal study.
(§7) The average for the five replicates of each biocide concentration was determined and the averages plotted as growth over time for each biocide.

Penicillium funiculosum = test: as above; type: cell-based
Description: as §1, §2, §3, §4, §5, §6, §7

[1] = system: Cladosporium cladosporioides; test: as above; type: cell-based
Description: as §1, §2, §3, §4, §5, §6, §7

[2] = by one of California's hazardous materials watchdog organizations; NIOSH does not draw that conclusion; cited from earlier work
other molds = system: other molds
Description: (§8) As mentioned above, the example apparatus of FIG. 1 and any suitable biocide can be used for treating a nonwoven mat. Such biocides include but are not limited to those mentioned and evaluated, e.g., ZPT (zinc pyrithione), OPP (ortho-Phenyl Phenol), and Microbe Shield. […] A large number of differing levels of treatment were made and samples of each dosage rate retained.
(§9) In order to establish a range of dosage levels that might quantify their effectiveness, four (4) dosage levels were utilized: (a) 62-grams/MSF; (2) 86-grams/MSF; (3) 116-grams/MSF, and (4) 123-grams/MSF; plus a zero grams/MSF(0) control. The unit of measure: “per MSF” or per “Thousand Square Feet”, rather than a unit of weight; e.g., “per Ton”, is the most common unit of sale for many special nonwoven webs.
(§10) After the biocide was applied to the nonwoven web at the varying dosage levels, two different testing facilities were used to evaluate these samples: The Forest Research Labs of Mississippi State University (MSU), and the laboratory of Arch Chemicals, Inc. (“Arch”). MSU evaluated the treated samples for resistance to mold using testing procedures of, e.g., ASTM D 6329-98, “Standard Guide for Developing Methodology for Evaluating the Ability of Indoor Materials to Support Microbial Growth Using Static Environmental Chambers,” and Arch Chemicals utilized ASTM G 21-96 (Re-approved 2002), “Standard Practice for Determining Resistance of Synthetic Polymeric Materials to Fungi”, both from ASTM International, PA, USA.
(§11) The MSU testing used the fungus Stachybotrys chartarum, but allowed “other molds” to enter the chamber. The Stachybotrys chartarum (ATCC 9182) was grown on Potato Dextrose Agar (“PDA”) and Sabouraud Dextrose Agar and allowed to sporulate (i.e., produce spores). This procedure followed ASTM C 1338-00, Standard Test Method for Determining Fungi Resistance of Insulation Materials and Facings. ASTM International, PA., USA. The solution was adjusted with additional sterile water until a spore count of approximately 940,000 cells per ml was obtained. This solution was the inoculum. A portion of this solution was also plated onto PDA to confirm the viable cell count. In the test, the nonwoven felt pieces were laid out with their treated side up, and inoculated with the spore suspension by an atomizer (ASTM C 1338-00). The pieces were allowed to air dry for several hours before being placed into the static environmental chambers. There were five replicates for each sample set (62-grams/MSF; 86-grams/MSF; 116-grams/MSF, and 123-grams/MSF; plus a zero (0) control) for each sampling period (2 weeks, 4 weeks, and 6 weeks).
(§12) The numbers in Table 3 are in colony forming units (CFUs), a well known standard of measure prescribed, e.g., by ASTM 6329-98.

[3] = system: Stachybotrys chartarum (ATCC 9182)
Description: as §8, §9, §10, §11, §12

[4] = footnote a: extrapolation outside of the test concentration range
[5] = ppm ai in agar, linear regression of radial growth
[6] = nonwoven felt with 62-g/MSF ZPT, Week Number 2
[7] = nonwoven felt with 62-g/MSF ZPT, Week Number 4
[8] = nonwoven felt with 62-g/MSF ZPT, Week Number 6
[9] = nonwoven felt with 86-g/MSF ZPT, Week Number 2
[10] = nonwoven felt with 86-g/MSF ZPT, Week Number 4
[11] = nonwoven felt with 86-g/MSF ZPT, Week Number 6
[12] = nonwoven felt with 116-g/MSF ZPT, Week Number 2
[13] = nonwoven felt with 116-g/MSF ZPT, Week Number 4
[14] = nonwoven felt with 116-g/MSF ZPT, Week Number 6
[15] = nonwoven felt with 123-g/MSF ZPT, Week Number 2
[16] = nonwoven felt with 123-g/MSF ZPT, Week Number 4
[17] = nonwoven felt with 123-g/MSF ZPT, Week Number 6
[18] = concluded from Table 3 and Table 4
[19] = ppm ai in agar, totally inhibits fungal growth

CCCCCCCCCCCCCCCCCC[N+](C)(C)CCC[Si](OC)(OC)OC.[Cl-] [Microbe Shield, 3-trimethixysilylpropyldimethyloctadecyl ammonium chloride]
MIC (ppm) Aspergillus niger (Aspergillus niger; [4]): 625^a ppm
IC50 (ppm) Aspergillus niger (Aspergillus niger; ppm ai in agar): 286 ppm
IC50 (ppm) Penicillium Funiculosum (Penicillium funiculosum; [4]): 670^a ppm
MIC (ppm) Penicillium Funiculosum (Penicillium funiculosum; [4]): 1289^a ppm
IC50 (ppm) Cladosporium cladosporioides [1, 4]: 2025^a ppm
MIC (ppm) Cladosporium cladosporioides [1, 4]: 5575^a ppm

Oc1ccccc1-c1ccccc1 [OPP, ortho-Phenyl Phenol]
carcinogenicity rating [2]: human carcinogen
MIC (Aspergillus niger; Aspergillus niger, read-out: MIC (ppm) Aspergillus niger): 84.5 µg/mL
IC50 (ppm) Aspergillus niger (Aspergillus niger; ppm ai in agar): 16.3 ppm
MIC (Penicillium funiculosum; Talaromyces funiculosus, read-out: MIC (ppm) Penicillium Funiculosum): ≤ 375 µg/mL
IC50 (ppm) Penicillium Funiculosum (Penicillium funiculosum; [5]): ≤ 212.6^b ppm
MIC ([1]; Cladosporium cladosporioides, read-out: MIC (ppm) Cladosporium cladosporioides): ≤ 375 µg/mL
IC50 (ppm) Cladosporium cladosporioides [1, 5]: ≤ 203.8^b ppm

zinc pyrithione [Zn Pyrithione]
Other Mold colony forming units (other molds; [6]): 880 CFUs
Other Mold colony forming units (other molds; [7]): 3360 CFUs
Other Mold colony forming units (other molds; [8]): 19730 CFUs
Other Mold colony forming units (other molds; [9]): 530 CFUs
Other Mold colony forming units (other molds; [10]): 3450 CFUs
Other Mold colony forming units (other molds; [11]): 4100 CFUs
Other Mold colony forming units (other molds; [12]): 67 CFUs
Other Mold colony forming units (other molds; [13]): 125 CFUs
Other Mold colony forming units (other molds; [14]): 7540 CFUs
Other Mold colony forming units (other molds; [15]): 0 CFUs
Other Mold colony forming units (other molds; [16]): 54 CFUs
Other Mold colony forming units (other molds; [17]): 5380 CFUs
mold growth in the MSU test ([3]; biocide dose of 62-grams ZPT per MSF): mold DOES grow
amount of biocide at which mold resistance is optimum [3, 18]: ≥ 100 grams per MSF (per side)
amount of biocide at which significant mold resistance is imparted [3, 18]: ≥ 50 grams per MSF per side
Stachybotrys colony forming units [3, 6]: 0 CFUs
Stachybotrys colony forming units [3, 7]: 680 CFUs
Stachybotrys colony forming units [3, 8]: 3710 CFUs
Stachybotrys colony forming units [3, 9]: 0 CFUs
Stachybotrys colony forming units [3, 10]: 390 CFUs
Stachybotrys colony forming units [3, 11]: 1110 CFUs
Stachybotrys colony forming units [3, 12]: 0 CFUs
Stachybotrys colony forming units [3, 13]: 0 CFUs
Stachybotrys colony forming units [3, 14]: 0.2 CFUs
Stachybotrys colony forming units [3, 15]: 0 CFUs
Stachybotrys colony forming units [3, 16]: 0.4 CFUs
Stachybotrys colony forming units [3, 17]: 0 CFUs
IC50 (ppm) Aspergillus niger (Aspergillus niger; ppm ai in agar): 9.2 ppm
MIC (ppm) Aspergillus niger (Aspergillus niger; [19]): 21.2 ppm
IC50 (ppm) Penicillium Funiculosum (Penicillium funiculosum; [5]): 8.0 ppm
MIC (ppm) Penicillium Funiculosum (Penicillium funiculosum; [19]): 16.2 ppm
IC50 (ppm) Cladosporium cladosporioides [1, 5]: ≤ 1.8^b ppm
MIC (ppm) Cladosporium cladosporioides [1, 19]: ≤ 15^b ppm
